Data from patent publication US20030094251A1, “Enhancing laccase activity using pro-oxidants and pro-degradants” (priority 2001, published 2003).

Columns and labels:
[1] = test system: laccase; assay: Chicago Blue assay: mediator-enhanced laccase-catalyzed bleaching of Chicago Blue in solution; format: biochemical, Aspergillus; settings: decrease in absorbance of Chicago Blue at 610 nm after 3 min, mediator (0.1 umole/ml); for ΔmA610 (3 min) at pH 5.5: pH 5.5, laccase; for ΔmA610 (3 min) at pH 7.0: pH 7.0, laccase
Method: In this example, the pro-oxidants and pro-degradants were tested individually as mediators to enhance laccase-catalyzed bleaching of Chicago Blue in solution. The Chicago Blue Dye, also known as Direct Blue 1 or DB1, is a commonly used assay for the oxidative efficiency of laccase. The Chicago Blue Dye is fully described by Schneider et al. in U.S. Pat. No. 5,885,304, which is hereby incorporated by reference.
Each of the compounds (i.e., potential mediators) was dissolved in water, or in ethanol if the potential mediator was not water soluble, and then mixed with a phosphate buffer and a Chicago Blue solution. A solution of a laccase was added to make up 1 ml of the final solution, containing […] mediator, 20 mM buffer at pH 5.5 or 7.0, 0.1-1% laccase (v/v) and Chicago Blue solution, with absorbance at A610 nm between 0.6 to 0.8. The change in the absorbance at A610 nm was measured immediately using a UV-VIS spectrophotometer (UV-1201, Shimadzu Scientific Instruments) after the enzyme was added. The decrease in absorbance was recorded at 30-second intervals for 5 minutes and was used to estimate the efficiency of the mediator.

[2] = test system: laccase (NS51003); assay: Pulp bleaching with laccase and mediators, delignification measured as change in Kappa number (TAPPI T236 cm-85); parameters: species or system Aspergillus
Method: Delignification of the pulp was measured as the change in Kappa number according to TAPPI method T236 cm-85. Briefly, a known mass of paper pulp (containing lignin) was reacted with an excess of potassium permanganate in acid solution for a specified period of time to oxidize the lignin. After the reaction, the residual permanganate was determined by titration. The Kappa number was defined as the volume (ml) of 0.1N potassium permanganate consumed by 1 g of moisture-free pulp in 0.5N sulfuric acid after a ten-minute reaction time at 25° C. under conditions such that one-half of the permanganate remains unreacted. A linear relationship with the lignin content of the pulp and the measurement of the Kappa number has been done on samples as low as 300 mg of pulp.
A softwood Kraft pulp, Kappa number 31.0, was treated with a laccase (NS51003) under the following conditions:
The dried pulp was added to 80 ml of 50 mM phosphate, pH 5.5, and disintegrated in a blender. The pulp was then transferred to a 500-ml conical flask and the blender was washed with 20 ml of the same buffer. The washed buffer and the pulp were combined. The mediator was added at 1-4% (w/w, based on the dry pulp) followed by the addition of the laccase. The pH of the pulp mixture was adjusted to 5.5 if needed. […]
The delignification of the pulp was measured as the change in the Kappa number according to TAPPI method T236 cm-85.

Structure (SMILES)	ΔmA610 (3 min) at pH 5.5 [1]	ΔmA610 (3 min) at pH 7.0 [1]	Kappa number reduction (in words) ([2]; 0.1 ml of the 51003 laccase with the mediator)	activity in enhancing bleaching (in words) ([2]; pulp bleaching with laccase, Examples 2-6)
O=C(O)c1ccccc1O [Salicylic acid, salicylic acid]	11			
O=C(O)c1cccnc1 [Nicotinic acid, nicotinic acid]	0	0		
O=C1O[C@H]([C@@H](O)CO)C(O)=C1O [Ascorbic acid, ascorbic acid]	6	2		
On1nnc2ccccc21 [HBT, 1-hydroxybenzotriazole, reference compound]			modest Kappa number reduction	
NC(N)=O [Urea, urea]	1	0		barely active
